Results: ChEMBL document CHEMBL4831549, “The Marine Neurotoxin Brevetoxin (PbTx-2) Inhibits Karenia brevis and Mammalian Thioredoxin Reductases by Targeting Different Residues” (J Nat Prod, 2021)
Calls of active or inactive are those of the source. The calls are words filed in the database; no cut-off is given here.

What was measured:
[1] = biological target: T1, Thioredoxin reductase 1, cytoplasmic (Rattus norvegicus) (UniProt O89049); test: Binding affinity to rat TrxR1 assessed as adduct formation at 7.2 uM by LC-MS/MS analysis
T1 sequence (whole entry): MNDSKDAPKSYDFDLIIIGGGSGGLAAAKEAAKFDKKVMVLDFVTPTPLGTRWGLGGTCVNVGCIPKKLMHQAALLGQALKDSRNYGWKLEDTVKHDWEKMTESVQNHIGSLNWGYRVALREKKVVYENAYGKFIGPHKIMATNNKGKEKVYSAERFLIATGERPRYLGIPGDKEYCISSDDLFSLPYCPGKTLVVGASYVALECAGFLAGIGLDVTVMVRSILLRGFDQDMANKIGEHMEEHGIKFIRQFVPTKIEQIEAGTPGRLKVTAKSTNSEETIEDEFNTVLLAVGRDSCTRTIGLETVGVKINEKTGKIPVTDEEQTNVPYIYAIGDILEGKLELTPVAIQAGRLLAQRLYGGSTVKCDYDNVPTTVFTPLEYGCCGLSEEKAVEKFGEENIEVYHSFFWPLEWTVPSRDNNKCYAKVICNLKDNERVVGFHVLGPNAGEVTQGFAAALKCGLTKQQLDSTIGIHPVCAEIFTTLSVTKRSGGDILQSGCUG

Karenia brevis [2] = test: Inhibition of Karenia brevis TrxR assessed as reduction in substrate reduction at 10 to 100 uM using H2O2 as a substrate incubated for 60 mins in the presence of NADPH followed by substrate addition measured for 15 mins by absorbance based assay relative to control; settings: dose 10-100 µM
Karenia brevis [3] = test: Binding affinity Karenia brevis TrxR assessed as formation at 7.2 uM by LC-MS/MS analysis
[4] = Inhibition of Karenia brevis TrxR assessed as reduction in substrate reduction using H2O2 as a substrate incubated for 60 mins in the presence of NADPH followed by substrate addition measured for 15 mins by absorbance based assay
Karenia brevis [5] = test: Inhibition of Karenia brevis TrxRD3 assessed as reduction in substrate reduction at 40 uM using DTNB as a substrate incubated for 60 mins in the presence of NADPH followed by substrate addition measured for 5 mins by absorbance based assay relative to control
Karenia brevis [6] = test: Inhibition of Karenia brevis TrxR assessed as reduction in substrate reduction at 40 uM using human Trx and insulin as a substrate incubated for 60 mins in the presence of NADPH followed by substrate addition measured for 5 mins by absorbance based assay relative to control
Karenia brevis [7] = test: Inhibition of Karenia brevis TrxR assessed as reduction in substrate reduction at 40 uM using DTNB as a substrate incubated for 60 mins in the presence of NADPH followed by substrate addition measured for 5 mins by absorbance based assay relative to control
Karenia brevis [8] = test: Inhibition of Karenia brevis TrxR assessed as reduction in substrate reduction at 40 uM using GSSG as a substrate incubated for 60 mins in the presence of NADPH followed by substrate addition measured for 30 mins by absorbance based assay relative to control

**Q.** Which Activity [1] does the source give for `C=C(C=O)C[C@@H]1C[C@H](O)[C@]2(C)O[C@@H]3C[C@@H]4O[C@@H]5C[C@]6(C)O[C@]7(C)CC[C@@H]8O[C@@H]9C[C@]%10(C)O[C@@H]%11C(C)=CC(=O)O[C@H]%11C[C@H]%10O[C@H]9C[C@@H](C)[C@H]8O[C@H]7C[C@H]6O[C@@]5(C)C/C=C\[C@H]4O[C@H]3C[C@H]2O1` [BREVETOXIN B] here?
**A.** Active

**Q.** And the inhibition (Karenia brevis [2])?
**A.** 39.6%

**Q.** What about the Activity (Karenia brevis [3]) of the same compound?
**A.** Active

**Q.** And the IC50 [4]?
**A.** 56 µM

**Q.** And the inhibition (Karenia brevis [5])?
**A.** 20.7%

**Q.** What about the inhibition (Karenia brevis [6]) of the same compound?
**A.** 34%

**Q.** What about the inhibition (Karenia brevis [7]) of the same compound?
**A.** 44.7%

**Q.** What about the inhibition (Karenia brevis [8]) of the same compound?
**A.** 32.5%
